# From patent US8247211B2, “Glycopeptide antibiotics” (American Cyanamid Company, priority 2001, dated 2012)
# Key:
# Experiment in all cases: In vitro antibacterial evaluation: minimum inhibitory concentration (MIC), broth dilution method
# Assay type in all cases: cell-based
# Conditions in all cases: 18 hours at 35° C.
# [1] = system: Enterococcus sp.
# Procedure, shortened: (§1)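 Inoculum: 5×10^5 CFU/mL. Range: 64-0.06 μg/mL. Medium: Muller-Hinton II […]; NCCLS M7-A2 broth dilution. Endpoint: lowest concentration inhibiting growth. Strains include methicillin-, penicillin- and/or vancomycin-resistant clinical isolates.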
# [2] = system: Escherichia coli
# Procedure, shortened: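 Values are minimum inhibitory concentrations, meaning the smallest antibiotic concentration that stops growth of the organism. They come from broth dilution in Muller-Hinton II […] per NCCLS guidance (M7-A2), using 5×10^5 CFU/mL and concentrations from 64 to 0.06 μg/mL.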
# [3] = system: Staphylococcus sp.
# Procedure, shortened: as §1
# [4] = system: Streptococcus sp.
# Procedure, shortened: as §1
substance,measurement,setting,value
γ-O-[(Dodecylamino)carbonyl]-cyclo[glycyl-β-methylphenylalanyl-O-(4-O-hexopyranosylhexopyranosyl]tyrosyl-3-(2-iminoimidazolidin-4-yl)seryl-3-(3-hexopyranosyl-2-iminoimidazolidin-4-yl)serylseryl] [Example 254b],MIC Enterococcus avium (GC 4558),[1]; Enterococcus avium (GC 4558),4 mg/L
same,MIC Enterococcus faecalis (ATCC 29212),[1]; Enterococcus faecalis (ATCC 29212),8 mg/L
same,MIC Enterococcus faecalis (GC 2242),[1]; Enterococcus faecalis (GC 2242),8 mg/L
same,MIC Enterococcus faecalis (GC 4552),[1]; Enterococcus faecalis (GC 4552),8 mg/L
same,MIC Enterococcus faecalis (GC 4553),[1]; Enterococcus faecalis (GC 4553),4 mg/L
same,MIC Enterococcus faecalis (GC 4554),[1]; Enterococcus faecalis (GC 4554),4 mg/L
same,MIC Enterococcus faecium (GC 2243),[1]; Enterococcus faecium (GC 2243),4 mg/L
same,MIC Enterococcus faecium (GC 4556),[1]; Enterococcus faecium (GC 4556),8 mg/L
same,MIC Enterococcus faecium (GC 4557),[1]; Enterococcus faecium (GC 4557),8 mg/L
same,MIC Enterococcus faecalis (ATCC 29212),"[1]; broth dilution, strain ATCC 29212",8 mg/L
same,MIC Enterococcus faecalis (GC 2242),"[1]; broth dilution, strain GC 2242",8 mg/L
same,MIC Enterococcus faecium (GC 2243),"[1]; broth dilution, strain GC 2243",4 mg/L
same,MIC Enterococcus faecalis (GC 4552),"[1]; broth dilution, strain GC 4552",8 mg/L
same,MIC Enterococcus faecalis (GC 4553),"[1]; broth dilution, strain GC 4553",4 mg/L
same,MIC Enterococcus faecalis (GC 4554),"[1]; broth dilution, strain GC 4554",4 mg/L
same,MIC Enterococcus faecium (GC 4556),"[1]; broth dilution, strain GC 4556",8 mg/L
same,MIC Enterococcus faecium (GC 4557),"[1]; broth dilution, strain GC 4557",8 mg/L
same,MIC Enterococcus avium (GC 4558),"[1]; broth dilution, strain GC 4558",4 mg/L
same,MIC Escherichia coli (ATCC 25922),[2]; Escherichia coli (ATCC 25922),64 mg/L
same,MIC Escherichia coli (GC 4559),[2]; Escherichia coli (GC 4559),64 mg/L
same,MIC Escherichia coli (GC 4560),[2]; Escherichia coli (GC 4560),16 mg/L
same,MIC Coagulase Negative Staphylococcus (GC 4547),[3]; Coagulase Negative Staphylococcus (GC 4547),8 mg/L
same,MIC Coagulase Negative Staphylococcus (GC 4548),[3]; Coagulase Negative Staphylococcus (GC 4548),2 mg/L
same,MIC Coagulase Negative Staphylococcus (GC 4549),[3]; Coagulase Negative Staphylococcus (GC 4549),4 mg/L
same,MIC Coagulase Negative Staphylococcus (GC 4551),[3]; Coagulase Negative Staphylococcus (GC 4551),4 mg/L
same,MIC Coagulase Negative Staphylococcus (ID-3941),[3]; Coagulase Negative Staphylococcus (ID-3941),2 mg/L
same,MIC Staphylococcus aureus (ATCC 29213),[3]; Staphylococcus aureus (ATCC 29213),8 mg/L
same,MIC Staphylococcus aureus (GC 1131),[3]; Staphylococcus aureus (GC 1131),4 mg/L
same,MIC Staphylococcus aureus (GC 4541),[3]; Staphylococcus aureus (GC 4541),4 mg/L
same,MIC Staphylococcus aureus (GC 4542),[3]; Staphylococcus aureus (GC 4542),8 mg/L
same,MIC Staphylococcus aureus (GC 4544),[3]; Staphylococcus aureus (GC 4544),8 mg/L
same,MIC Staphylococcus aureus (GC 4545),[3]; Staphylococcus aureus (GC 4545),8 mg/L
same,MIC Staphylococcus aureus-SMITH (GC 4543),[3]; Staphylococcus aureus-SMITH (GC 4543),4 mg/L
same,MIC Staphylococcus haemolyticus (GC 4546),[3]; Staphylococcus haemolyticus (GC 4546),8 mg/L
same,MIC Staphylococcus aureus (ATCC 29213),"[3]; broth dilution, strain ATCC 29213",8 mg/L
same,MIC Staphylococcus aureus (GC 1131),"[3]; broth dilution, strain GC 1131",4 mg/L
same,MIC Staphylococcus aureus (GC 4541),"[3]; broth dilution, strain GC 4541",4 mg/L
same,MIC Staphylococcus aureus (GC 4542),"[3]; broth dilution, strain GC 4542",8 mg/L
same,MIC Staphylococcus aureus-SMITH (GC 4543),"[3]; broth dilution, strain GC 4543",4 mg/L
same,MIC Staphylococcus aureus (GC 4544),"[3]; broth dilution, strain GC 4544",8 mg/L
same,MIC Staphylococcus aureus (GC 4545),"[3]; broth dilution, strain GC 4545",8 mg/L
same,MIC Staphylococcus haemolyticus (GC 4546),"[3]; broth dilution, strain GC 4546",8 mg/L
same,MIC Coagulase Negative Staphylococcus (GC 4547),"[3]; broth dilution, strain GC 4547",8 mg/L
same,MIC Coagulase Negative Staphylococcus (GC 4548),"[3]; broth dilution, strain GC 4548",2 mg/L
same,MIC Coagulase Negative Staphylococcus (GC 4549),"[3]; broth dilution, strain GC 4549",4 mg/L
same,MIC Coagulase Negative Staphylococcus (GC 4551),"[3]; broth dilution, strain GC 4551",4 mg/L
same,MIC Coagulase Negative Staphylococcus (ID-3941),"[3]; broth dilution, strain ID-3941",2 mg/L
same,MIC Streptococcus agalactiae (GC 4564),[4]; Streptococcus agalactiae (GC 4564),<0.5 mg/L
same,MIC Streptococcus pneumoniae (GC 4565),[4]; Streptococcus pneumoniae (GC 4565),<0.5 mg/L
same,MIC Streptococcus pyogenes (ID-3187),[4]; Streptococcus pyogenes (ID-3187),<0.5 mg/L
same,MIC Streptococcus agalactiae (GC 4564),"[4]; broth dilution, strain GC 4564",<0.5 mg/L
same,MIC Streptococcus pneumoniae (GC 4565),"[4]; broth dilution, strain GC 4565",<0.5 mg/L
same,MIC Streptococcus pyogenes (ID-3187),"[4]; broth dilution, strain ID-3187",<0.5 mg/L
